Results on 17 molecules are retold here after ChEMBL document CHEMBL3832761, “MMV Pathogen Box Bioactivity Data” (2017).

pEC50, pIC50: −log10 of the molar value.

The subject of assay [1] is Brugia malayi. Put plainly: AntiBrugia malayi activity Effect on motility. Type of assay: functional, organism-based.
Assay [2] concerns HepG2. Put plainly: Cytotoxicity data HepG2 CC20 (uM). Type of assay: functional.
The subject of assay [3] is CHO. Kind of assay: CHO CC50 (uM) Cytotoxicity. Type of assay: functional. Conditions: Cricetulus griseus.
The test system of assay [4] is Toxoplasma gondii. Put plainly: AntiToxoplasma gondii activity data Inhibition of plaque forming efficiency (%) Experiment A. The assay is classed as functional. More on the design: concentration or dose not given beside the values.
Assay [5] relates to Toxoplasma gondii. Put plainly: AntiToxoplasma gondii activity data 2-day killing assay: IC50 (uM), Experiment G. The assay is classed as functional, organism-based. Conditions: Toxoplasma gondii, 48 h; read-out: IC50.
Assay [6] relates to Toxoplasma gondii. Kind of assay: AntiToxoplasma gondii activity data 2-day killing assay: inhibition at 10 uM (%) Experiment D. Type of assay: functional.
The test system of assay [7] is Toxoplasma gondii. Kind of assay: AntiToxoplasma gondii activity data 2-day killing assay: inhibition at 10 uM (%) Experiment E. Type of assay: functional.
For assay [8], the system named is Toxoplasma gondii. Kind of assay: AntiToxoplasma gondii activity data 2-day killing assay: inhibition at 10 uM (%) Experiment C. Conditions: 48 h. Type of assay: functional.
The test system of assay [9] is Toxoplasma gondii. Put plainly: AntiToxoplasma gondii activity data 2-day killing assay: IC50 (uM), Experiment F. The assay is classed as functional, organism-based. Particulars: Toxoplasma gondii, 48 h; read-out: IC50.
A short description of assay [10]: HL60 CC50 (uM) Cytotoxicity. The assay is classed as functional. Conditions: HL-60.
Assay [11] has as its system Brugia pahangi. Put plainly: AntiBrugia pahangi activity Average inhibition motility at 10 uM (%). The assay is classed as functional.
Assay [12] deals with Onchocerca ochengi. Kind of assay: AntiOnchocerca activity O. ochengi adult males: final mean inhibition motility at 10 uM on Day 5 (%). The assay is classed as functional.
In assay [13] the test system is Onchocerca gutturosa. Put plainly: AntiOnchocerca activity O. gutturosa adult males: MTT reduction at 12.5 uM (%). The assay is classed as functional. More on the design: scale not given: the % may be the effect or the level left.
The subject of assay [14] is Onchocerca volvulus. Kind of assay: AntiOnchocerca activity O. volvulus L3 Molting assay: IC50 (uM). The assay is classed as functional, organism-based.
The test system of assay [15] is Onchocerca lienalis. Kind of assay: AntiOnchocerca activity O. lienalis microfilariae Motility reduction (%). Type of assay: functional. Details: concentration or dose not given beside the values.
Assay [16] relates to Onchocerca gutturosa. Kind of assay: AntiOnchocerca activity O. gutturosa adult males: Motility reduction at 12.5 uM (%). The assay is classed as functional. Details: scale not given: the % may be the effect or the level left.
The subject of assay [17] is Onchocerca volvulus. Kind of assay: AntiOnchocerca activity O. volvulus L3 Molting assay: inhibition at 10 uM (%). The assay is classed as functional.
Assay [18] has as its system Onchocerca ochengi. Put plainly: AntiOnchocerca activity O. ochengi adult females: final mean inhibition motility at 10 uM on Day 7 (%). Type of assay: functional.
Assay [19] deals with Brugia pahangi. Put plainly: AntiBrugia pahangi activity Average day 3 IC50 (uM). The assay is classed as functional, organism-based. Conditions: 72 h.
The nature of assay [20]: AntiChikungunya activity HCI CHIKV/Huh7 IC50 (uM). The assay is classed as functional, Chikungunya virus.
The subject of assay [21] is Dengue virus. Put plainly: AntiDengue activity HCI DV2/A549 IC50 (uM). The assay is classed as functional, organism-based.
For assay [22], the system named is A549. Put plainly: A549 CC50 (uM) Cytotoxicity. Type of assay: functional. Particulars: Homo sapiens.
The nature of assay [23]: HUH7 CC50 (uM) Cytotoxicity. Particulars: Huh-7. Type of assay: functional.
Assay [24] concerns Dengue virus. Put plainly: AntiDengue activity HCI DV1/A549 IC50 (uM). The assay is classed as functional, organism-based.
Assay [25] relates to Dengue virus. Kind of assay: AntiDengue activity HCI DV2/Huh7 IC50 (uM). The assay is classed as functional, organism-based. Particulars: Huh-7.
Assay [26] relates to Dengue virus. Put plainly: AntiDengue activity HCI DV3/A549 IC50 (uM). Type of assay: functional, organism-based.
Assay [27] relates to Dengue virus. Put plainly: AntiDengue activity HCI DV4/A549 IC50 (uM). Type of assay: functional, organism-based.
Assay [28] concerns HepG2. Put plainly: HepG2 CC50 (uM) Cytotoxicity. Type of assay: functional. Conditions: Homo sapiens.
The test system of assay [29] is Onchocerca gutturosa. Kind of assay: AntiOnchocerca activity O. gutturosa adult males: EC50 (uM). The assay is classed as functional, organism-based.
In assay [30] the test system is Ancylostoma ceylanicum. Put plainly: microbe, parasite or virus in culture.
Assay [31] has as its system Ancylostoma ceylanicum. Kind of assay: microbe, parasite or virus in culture. This is another data set of the same source.
Assay [32] deals with Wolbachia. Kind of assay: Anti-Wolbachia activity Reduction in Wolbachia infected cells at 10 uM (%). Type of assay: functional, cell-based. More on the design: Activity: scale not given: the % may be the effect or the level left.
In assay [33] the test system is Onchocerca lienalis. Kind of assay: AntiOnchocerca activity O. lienalis microfilariae EC50 (uM). Type of assay: functional, organism-based.

In the case of `Cc1cc(C2=NOC(c3cc(Cl)c(F)c(Cl)c3)(C(F)(F)F)C2)ccc1C(=O)NCc1ccc2c(c1)C(C)(C)OB2O` (centres undefined), the negative-log IC50 (pIC50) (usually −log10 of the IC50, conventionally taken in molar units) in assay [1] (Brugia malayi) is 5.52. The same molecule yielded a CC20 in assay [2] of 10.9 µM.

For the molecule `Nc1ncnc2c1c(-c1cnc3ccccc3c1)nn2CC1CCNCC1`, in [3], the CC50 (in general, the concentration giving 50% cytotoxicity) was > 50 µM. For the same molecule, the Inhibition (commonly the relative decrease from the control value, in per cent) in assay [4] was ~60%; in [6] it was 72.3%; in [7], 92.8%. Further, the pIC50 in assay [5] is 5.12; in [9], 5.17. Further, the inhibition (commonly the relative decrease from the control value, in per cent) at 10 µM in assay [8] amounted to 48.8%.

On to `COc1ccc(N(CCc2cccc(C)n2)C(=O)C2CCCCC2)cc1`, for which, in assay [10], the CC50 was > 50 µM. Also, the Inhibition in [11] turned out to be 11%; in assay [12], 7%; in [17], 100%; in assay [18], 4%. The figures for the Activity in [13], in assay [15] and in assay [16] were 35.7%, 13% and 42.9%, respectively. The same molecule had a pIC50 in assay [14] of 5.87. Besides, the CC20 in assay [2] was >80 µM.

For `CCCCc1ccc(NC(=O)Nc2ccc(O[C@H]3CCCC[C@@H]3N(C)c3ccccc3)c(F)c2)cc1`, in [10], the CC50 was > 6.2 µM. The Inhibition came out at 61% in assay [11], 61% in assay [12], 100% in assay [17] and 57% in assay [18]. Besides, the Activity in assay [13] amounted to 0%; in assay [15], 33.3%; in assay [16], 14.3%. Moreover, the pIC50 in [19] is 5.08; in assay [14], 5.96. In addition, the CC20 in assay [2] came to 5.77 µM.

As to `COC(=O)c1ccc(F)cc1NS(=O)(=O)c1cccc(-c2cnn(Cc3ccccc3)c2)c1`, the pIC50 in assay [20] is 5.00; in assay [21], 5.22; in assay [24], 5.30; in assay [25], 5.00; in [26] it was < 4.30; in assay [27], < 4.30. In addition, the half-maximal cytotoxic concentration (CC50) in assay [22] is > 50 µM; in assay [23], 20 µM; in [28], 10 µM.

Regarding `O=C(Nc1nnc(S)s1)c1cc(Br)ccc1Cl`, the CC50 in assay [10] was > 50 µM. Further, the Inhibition in assay [11] was 69%; in assay [12], 0%; in assay [17], 36%; in [18] it was 4%. The Activity in assay [13] came out at 0%; in assay [15], 27%; in [16], 29%. Further, in assay [19], the pIC50 was 5.03. Moreover, the CC20 in [2] is >80 µM.

`CC(C)(C)C(=O)N(CCCCCCN1C[C@H](O)[C@@H](O)[C@H](O)[C@H]1CO)C1CCCCCC1`: the pIC50 in assay [20] was < 4.30; in [21], 6.22; in assay [24] it was 7.15; in assay [25] it was 5.70; in [26], 7.10; in assay [27] it was 6.70. The CC50 in [22], in [23] and in [28] was > 50 µM in each case.

As to `CC(=O)N(CCN(C(=O)c1ccc(F)cc1)c1ccccc1)c1ccccc1`, in assay [10], the CC50 is > 50 µM. For the same molecule, the Inhibition was determined as 4% in assay [11], 0% in assay [12], 100% in assay [17] and 4% in [18]. The figures for the Activity in [13], in assay [15] and in assay [16] were 0%, 13.3% and 42.9%, respectively. Besides, the pIC50 in assay [14] is 5.50. Moreover, the CC20 in [2] amounted to 39 µM.

With `COC(=O)C1=C(C)NC(C)=C(C(=O)OC(C)C)C1c1cccc2nonc12` (centres undefined) [ISRADIPINE], the Activity in assay [13] came to 79%; in assay [15], 53%; in assay [16], 100%. Besides, the pEC50 (commonly −log10 of the EC50, conventionally taken in molar units) in [29] was 6.05. Further, in [2], the CC20 amounted to 66 µM.

Regarding `CN1CCCC1CCO[C@](C)(c1ccccc1)c1ccc(Cl)cc1` (some centres undefined), in assay [30], the inhibition at 200 µM turned out to be 76%. Further, the CC20 in assay [2] amounted to 9.28 µM. The same molecule came in with an inhibition at 50 µM in [31] of 47%.

As to `OC[C@H]1O[C@@H](n2c3ccc(Cl)cc3c3c(-c4cc5ccccc5o4)ncnc32)C(O)[C@H]1O` (some centres undefined), the negative logarithm of the IC50 (pIC50) was < 4.30 in assay [20]; 5.15 in [21]; 5.30 in [24]; < 4.30 in [25]; 5.52 in assay [26]; 5.52 in [27]. The CC50 in assay [22] was > 50 µM; in assay [23], 1 µM; in assay [28], 10 µM.

Take `COc1cccn2c(C(=O)N3CCCCC3)c(C(F)(F)F)nc12`: the pIC50 in [32] (Wolbachia) was 6.30. Moreover, the CC20 in [2] was >80 µM.

Consider `CCS(=O)(=O)N(Cc1ccco1)Cc1cc2ccc(C)cc2nc1O`, for which the Activity in assay [32] was determined as 52%. Also, the CC20 in assay [2] is >80 µM.

For the molecule `Oc1c(I)cc(I)c2cccnc12` [IODOQUINOL], the Activity in assay [13] came to 88%; in assay [15], 93.3%; in [16] it was 100%. This molecule also gave a pEC50 in [29] of 6.34. Further, the CC20 in [2] is 2.53 µM.

`Cc1[nH]c2cc(F)cc(F)c2c(=O)c1-c1ccc(Oc2ccc(OC(F)(F)F)cc2)cc1`: the results for the Activity in assay [13], in assay [15] and in assay [16] were 56.9%, 100% and 58.9%, respectively. The pEC50 was 5.54 in assay [29] and 5.86 in assay [33]. Further, the CC20 in assay [2] is >80 µM.

Molecule `CC1(C)OB(O)c2ccc(C3=NOC(c4cc(Cl)c(F)c(Cl)c4)(C(F)(F)F)C3)cc21` (centres undefined) had an Inhibition in assay [1] of 50%. The CC20 in assay [2] was 15.4 µM.

As to `CCc1nc2ccc(C(=O)NCc3ccc4c(c3)OCO4)cn2c1N(C)Cc1cccs1`, in assay [32], the Activity is 45%. Besides, the CC20 in assay [2] was determined as 18.6 µM.
